Like-named read-outs stand apart in the source and are kept apart here. Square brackets hold non-standard residues; d marks the D form. Peptide text beside a SMILES is read from it. * marks the point of attachment. Tyr(Nα-amidino) = N=C(N)N[C@@H](Cc1ccc(O)cc1)C(=O)*; NMeY = CN[C@@H](Cc1ccc(O)cc1)C(=O)O; αMeF = C[C@](N)(Cc1ccccc1)C(=O)O; Aib = CC(C)(N)C(=O)O
What was measured:
Format in all cases: cell-based
human GIPR = molecular target: T1, human GIPR (Homo sapiens, UniProt P48546); assay: Agonist activity against human GIPR, CRE-luciferase reporter assay (rise in intracellular cAMP) in hGIPR/CRE-LUC/CHO-K1 cells
T1 construct: expressed in transfected cells; host or cells: CHO-K1 (CRE-LUC/CHO-K1), plasmid hGIPR/pMSRα-neo
T1 sequence (P48546 22-466): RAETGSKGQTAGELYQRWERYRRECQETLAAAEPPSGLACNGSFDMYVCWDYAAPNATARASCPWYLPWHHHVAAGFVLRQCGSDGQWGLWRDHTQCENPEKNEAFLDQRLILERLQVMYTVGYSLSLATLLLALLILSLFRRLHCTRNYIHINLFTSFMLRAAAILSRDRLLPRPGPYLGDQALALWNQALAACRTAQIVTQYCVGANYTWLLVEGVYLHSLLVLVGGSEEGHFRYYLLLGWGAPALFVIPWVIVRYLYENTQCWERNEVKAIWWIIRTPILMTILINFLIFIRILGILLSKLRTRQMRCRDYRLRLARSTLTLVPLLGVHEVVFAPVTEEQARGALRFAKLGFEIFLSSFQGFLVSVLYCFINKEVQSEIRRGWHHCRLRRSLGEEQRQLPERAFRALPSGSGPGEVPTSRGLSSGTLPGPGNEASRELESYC
From the text: (§1) Evaluation of agonist activity against human GIPR, human GLP-1R and human glucagon R using rise in intracellular cAMP concentration as index
The human GIPR gene having a sequence identical to the sequence of GenBank Accession No. U39231 was cloned into pMSRα-neo vector to prepare hGIPR/pMSRα-neo.
(§2) The luciferase reporter gene having an upstream cAMP response sequence was introduced to CHO-K1 cells to construct CRE-LUC/CHO-K1 cells.
The plasmid hGIPR/pMSRα-neo obtained in (1) was introduced to the CRE-LUC/CHO-K1 cells obtained in (2) to obtain transformants. Next, a cell line induced to express luciferase, i.e., hGIPR/CRE-LUC/CHO-K1 cells, were selected from the obtained transformants by the addition of GIP.
(§3) The hGIPR/CRE-LUC/CHO-K1 cells were inoculated at a cell density of 25 μL/well (5×10^4 cells/well) to a 384-well white plate (Corning), and cultured overnight in Ham F12 medium containing 10% fetal bovine serum, 100 U/mL penicillin and 100 μg/mL streptomycin in a CO2 incubator of 37° C. A medium containing a test compound was added at a concentration of 5 μL/well to the cells, and the resultant cells were incubated for 4 hours in a CO2 incubator of 37° C. to give the final concentration of 1 μM. PicaGene LT7.5 (Toyo Ink Co., Ltd.) was added thereto at a concentration of 30 μL/well, and the mixture was shaken with light shielded. After 30 minutes, the luciferase activity was measured using a plate reader Envision (PerkinElmer). The luciferase activity in the presence of 10 nM GIP was defined as 100%, and the luciferase activity from the addition of DMSO instead of the test compound was defined as 0%. The GIPR agonist activity was calculated with a rise in intracellular cAMP concentration as an index.

human glucagon R = molecular target: T2, human glucagon R (Homo sapiens, UniProt P47871); assay: Agonist activity against human glucagon R, CRE-luciferase reporter assay in hGlucagonR/CRE-LUC/CHO-K1 cells
T2 construct: expressed in transfected cells; host or cells: CHO-K1 (CRE-LUC/CHO-K1), plasmid hGlucagonR/pMSRα-neo
T2 sequence (P47871 26-477): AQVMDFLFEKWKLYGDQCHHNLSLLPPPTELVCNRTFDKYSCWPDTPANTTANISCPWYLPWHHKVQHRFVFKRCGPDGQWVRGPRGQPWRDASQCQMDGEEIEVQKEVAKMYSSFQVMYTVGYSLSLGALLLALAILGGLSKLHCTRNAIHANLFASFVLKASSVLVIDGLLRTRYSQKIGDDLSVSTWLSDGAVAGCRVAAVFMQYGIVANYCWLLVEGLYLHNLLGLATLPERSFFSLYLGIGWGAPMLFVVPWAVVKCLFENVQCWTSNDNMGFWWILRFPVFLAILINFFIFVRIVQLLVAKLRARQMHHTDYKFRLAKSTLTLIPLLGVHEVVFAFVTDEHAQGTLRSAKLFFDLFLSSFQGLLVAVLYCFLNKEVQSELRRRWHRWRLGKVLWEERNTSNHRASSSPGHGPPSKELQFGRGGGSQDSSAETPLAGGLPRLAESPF
From the text: as §1, §2
The human glucagon R gene having a sequence identical to the sequence of GenBank Accession No. NM_000160 was cloned into pMSRα-neo vector to prepare hGlucagonR/pMSRα-neo.
The plasmid hGlucagonR/pMSRα-neo obtained in (7) was introduced to the CRE-LUC/CHO-K1 cells obtained in (2) to obtain transformants. Next, a cell line induced to express luciferase, i.e., hGlucagonR/CRE-LUC/CHO-K1 cells, were selected from the obtained transformants by the addition of glucagon.
as §3
(§4) The glucagon R agonist activity was assayed in the same way as above using the hGlucagonR/CRE-LUC/CHO-K1 cells. The luciferase activity in the presence of 10 nM glucagon was defined as 100%, and the luciferase activity from the addition of DMSO instead of the test compound was defined as 0%. The glucagon agonist activity was calculated with a rise in intracellular cAMP concentration as an index.

human GLP-1R = molecular target: T3, human GLP-1R (Homo sapiens, UniProt P43220); assay: Agonist activity against human GLP-1R, CRE-luciferase reporter assay in hGLP-1R/CRE-luc/CHO-K1 cells
T3 construct: expressed in transfected cells; host or cells: CHO-K1, plasmids hGLP-1/pIRESneo3 and Cre-luc(Zeo)
T3 sequence (P43220 24-463): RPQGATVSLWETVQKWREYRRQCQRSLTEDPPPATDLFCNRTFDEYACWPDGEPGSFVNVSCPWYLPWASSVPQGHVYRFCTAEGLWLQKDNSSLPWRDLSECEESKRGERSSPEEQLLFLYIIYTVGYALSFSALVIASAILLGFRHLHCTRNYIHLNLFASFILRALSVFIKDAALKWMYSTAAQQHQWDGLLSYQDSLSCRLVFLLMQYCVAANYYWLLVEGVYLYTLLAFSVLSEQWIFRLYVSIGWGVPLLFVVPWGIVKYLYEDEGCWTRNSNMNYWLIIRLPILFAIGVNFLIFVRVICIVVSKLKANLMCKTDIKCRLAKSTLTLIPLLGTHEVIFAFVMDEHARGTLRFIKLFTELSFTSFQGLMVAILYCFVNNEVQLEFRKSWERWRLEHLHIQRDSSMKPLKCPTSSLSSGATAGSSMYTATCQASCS
From the text: as §1
Four copies of the cAMP response sequence and the Zeocin resistance gene were introduced to pGL3(R2.2)-Basic Vector (Promega) to construct Cre-luc(Zeo) reporter plasmid.
The human GLP-1R gene having a sequence identical to the sequence of GenBank Accession No. NM_002062 was cloned into pIRESneo3 vector to prepare hGLP-1/pIRESneo3.
The Cre-luc(Zeo) obtained in (3) and the plasmid hGLP-1/pIRESneo3 obtained in (5) were introduced to CHO-K1 cells to obtain transformants. Next, a cell line induced to express luciferase, i.e., hGLP-1R/CRE-luc/CHO-K1 cells, were selected from the obtained transformants by the addition of GLP-1.
as §3
as §4, with “The GLP-1R” for “The glucagon R”, “the hGLP-1R/CRE-luc/CHO-K1” for “the hGlucagonR/CRE-LUC/CHO-K1”, “nM GLP-1” for “nM glucagon”, “The GLP-1R” for “The glucagon”

CC[C@H](C)[C@H](NC(=O)C(C)(C)NC(=O)[C@H](Cc1ccc(O)cc1)NC(=O)[C@H](CC(=O)O)NC(=O)[C@H](CO)NC(=O)[C@@H](NC(=O)[C@](C)(Cc1ccccc1)NC(=O)[C@@H](NC(=O)CNC(=O)[C@H](CCC(=O)O)NC(=O)C(C)(C)NC(=O)[C@H](Cc1ccc(O)cc1)NC(=N)N)[C@@H](C)O)[C@@H](C)O)C(=O)NC(C)(C)C(=O)N[C@@H](CC(C)C)C(=O)N[C@@H](CC(=O)O)C(=O)N[C@@H](CCCCN)C(=O)N[C@@H](CCC(N)=O)C(=O)N[C@@H](C)C(=O)N[C@@H](CCC(N)=O)C(=O)N[C@@H](C)C(=O)N[C@@H](CCC(=O)O)C(=O)N[C@@H](Cc1ccccc1)C(=O)N[C@H](C(=O)N[C@@H](CCCCN)C(=O)N[C@@H](Cc1c[nH]c2ccccc12)C(=O)N[C@@H](CC(C)C)C(=O)N[C@@H](CC(C)C)C(=O)N[C@@H](CCCCN)C(=O)NCC(=O)NCC(=O)N1CCC[C@H]1C(=O)N[C@@H](CO)C(=O)N[C@@H](CO)C(=O)NCC(=O)N[C@@H](C)C(=O)N1CCC[C@H]1C(=O)N1CCC[C@H]1C(=O)N1CCC[C@H]1C(=O)N[C@@H](CO)C(=O)N[C@@H](CCCCN)C(N)=O)C(C)C [Example 22] ({Tyr(Nα-amidino)}-[Aib]EGT[αMeF]TSDY[Aib]I[Aib]LDKQAQAEFVKWLLKGGPSSGAPPPSK-NH2) was tested, and the EC50 (human GIPR) was 0.019 nM, the EC50 (human glucagon R) was greater than 1000 nM and the EC50 (human GLP-1R) was 0.035 nM.

Work on CC[C@H](C)[C@H](NC(=O)C(C)(C)NC(=O)[C@H](Cc1ccc(O)cc1)NC(=O)[C@H](CC(=O)O)NC(=O)[C@H](CO)NC(=O)[C@@H](NC(=O)[C@](C)(Cc1ccccc1)NC(=O)[C@@H](NC(=O)CNC(=O)[C@H](CCC(=O)O)NC(=O)C(C)(C)NC(=O)[C@H](Cc1ccc(O)cc1)NC(C)=O)[C@@H](C)O)[C@@H](C)O)C(=O)NC(C)(C)C(=O)N[C@@H](CC(C)C)C(=O)N[C@@H](CC(=O)O)C(=O)N[C@@H](CCCCN)C(=O)N[C@@H](CCC(N)=O)C(=O)N[C@@H](C)C(=O)N[C@@H](CCC(N)=O)C(=O)N[C@@H](C)C(=O)N[C@@H](CCC(=O)O)C(=O)N[C@@H](Cc1ccccc1)C(=O)N[C@H](C(=O)N[C@@H](CCCCN)C(=O)N[C@@H](Cc1c[nH]c2ccccc12)C(=O)N[C@@H](CC(C)C)C(=O)N[C@@H](CC(C)C)C(=O)N[C@@H](CCCCN)C(=O)NCC(=O)NCC(=O)N1CCC[C@H]1C(=O)N[C@@H](CO)C(=O)N[C@@H](CO)C(=O)NCC(=O)N[C@@H](C)C(=O)N1CCC[C@H]1C(=O)N1CCC[C@H]1C(=O)N1CCC[C@H]1C(=O)N[C@@H](CO)C(=O)N[C@@H](CCCCN)C(N)=O)C(C)C [Example 18] (Ac-Y[Aib]EGT[αMeF]TSDY[Aib]I[Aib]LDKQAQAEFVKWLLKGGPSSGAPPPSK-NH2) yielded an EC50 (human GIPR; hGIPR/CRE-LUC/CHO-K1 cells, 4 hours incubation, 10 nM GIP = 100%, read-out: Agonist activity (EC50) hGIPR) of 0.027 nM, an EC50 (human glucagon R; hGlucagonR/CRE-LUC/CHO-K1 cells, 4 hours incubation, 10 nM glucagon = 100%, read-out: Agonist activity (EC50) hGCGR) greater than 1000 nM and an EC50 (human GLP-1R; hGLP-1R/CRE-luc/CHO-K1 cells, 4 hours incubation, 10 nM GLP-1 = 100%, read-out: Agonist activity (EC50) hGLP-1R) of 0.13 nM.

For CC[C@H](C)[C@H](NC(=O)[C@H](C)NC(=O)[C@H](Cc1ccc(O)cc1)NC(=O)[C@H](CC(=O)O)NC(=O)[C@H](CO)NC(=O)[C@@H](NC(=O)[C@](C)(Cc1ccccc1)NC(=O)[C@@H](NC(=O)CNC(=O)[C@H](CCC(=O)O)NC(=O)C(C)(C)NC(=O)[C@@H](N)Cc1ccc(O)cc1)[C@@H](C)O)[C@@H](C)O)C(=O)NC(C)(C)C(=O)N[C@@H](CC(C)C)C(=O)N[C@@H](CC(=O)O)C(=O)N[C@@H](CCCCN)C(=O)N[C@@H](CCC(N)=O)C(=O)N[C@@H](C)C(=O)N[C@@H](CCC(N)=O)C(=O)N[C@@H](CO)C(=O)N[C@@H](CCC(=O)O)C(=O)N[C@@H](Cc1ccccc1)C(=O)N[C@H](C(=O)N[C@@H](CCCCN)C(=O)N[C@@H](Cc1c[nH]c2ccccc12)C(=O)N[C@@H](CC(C)C)C(=O)N[C@@H](CC(C)C)C(=O)N[C@@H](CCCCN)C(=O)NCC(=O)NCC(=O)N1CCC[C@H]1C(=O)N[C@@H](CO)C(=O)N[C@@H](CO)C(=O)NCC(=O)N[C@@H](C)C(=O)N1CCC[C@H]1C(=O)N1CCC[C@H]1C(=O)N1CCC[C@H]1C(=O)N[C@@H](CO)C(=O)N[C@@H](CCCCN)C(N)=O)C(C)C [Example 3] (H-Y[Aib]EGT[αMeF]TSDYAI[Aib]LDKQAQSEFVKWLLKGGPSSGAPPPSK-NH2), the EC50 (human GIPR) was 0.0071 nM, the EC50 (human glucagon R) was greater than 1000 nM and the EC50 (human GLP-1R) was 0.013 nM.

CC[C@H](C)[C@H](NC(=O)C(C)(C)NC(=O)[C@H](Cc1ccc(O)cc1)NC(=O)[C@H](CC(=O)O)NC(=O)[C@H](CO)NC(=O)[C@@H](NC(=O)[C@](C)(Cc1ccccc1)NC(=O)[C@@H](NC(=O)CNC(=O)[C@H](CCC(=O)O)NC(=O)C(C)(C)NC(=O)[C@H](Cc1ccc(O)cc1)NC)[C@@H](C)O)[C@@H](C)O)C(=O)NC(C)(C)C(=O)N[C@@H](CC(C)C)C(=O)N[C@@H](CC(=O)O)C(=O)N[C@@H](CCCCN)C(=O)N[C@@H](CCC(N)=O)C(=O)N[C@@H](C)C(=O)N[C@@H](CCC(N)=O)C(=O)N[C@@H](C)C(=O)N[C@@H](CCC(=O)O)C(=O)N[C@@H](Cc1ccccc1)C(=O)N[C@H](C(=O)N[C@@H](CCCCN)C(=O)N[C@@H](Cc1c[nH]c2ccccc12)C(=O)N[C@@H](CC(C)C)C(=O)N[C@@H](CC(C)C)C(=O)N[C@@H](CCCCN)C(=O)NCC(=O)NCC(=O)N1CCC[C@H]1C(=O)N[C@@H](CO)C(=O)N[C@@H](CO)C(=O)NCC(=O)N[C@@H](C)C(=O)N1CCC[C@H]1C(=O)N1CCC[C@H]1C(=O)N1CCC[C@H]1C(=O)N[C@@H](CO)C(=O)N[C@@H](CCCCN)C(N)=O)C(C)C [Example 23] (H-[NMeY][Aib]EGT[αMeF]TSDY[Aib]I[Aib]LDKQAQAEFVKWLLKGGPSSGAPPPSK-NH2) showed an EC50 (human GIPR) of 0.016 nM and an EC50 (human GLP-1R) of 0.016 nM.

Reference: patent US9200051B2, “Peptide compound” (TAKEDA PHARMACEUTICAL COMPANY LIMITED, priority 2013, dated 2015)
